Data published in patent US9200008B2 (ASKA PHARMACEUTICAL CO., LTD., priority 2010, dated 2015).
pIC50: −log10 of the molar value. Read-outs that look alike come from different tables or passages of the source.

Legend:
Assay type in all cases: cell-based
[1] = test system: Human prostate cancer cell lines (PC-3 cells); assay: Calculation of IC50 value, cell proliferation inhibitory activity by XTT assay, PC-3 cells (Test Example 2); conditions: 72 hours culture with test substance, read-out: Cell proliferation inhibitory activity (IC50 value calculated from XTT assay), concentration showing 50% inhibitory activity, human prostate cancer cell lines (PC-3)
Protocol: (§1) Human prostate cancer cell lines (PC-3 cells) and human fibrosarcoma cell lines (HT1080 cells) were seeded to 96-well microplates so as to provide a density of 1,300 cells/well and that of 3,100 cells/well, respectively. In the presence of 5% CO2 at 37° C., the PC-3 cells and the HT1080 cells were cultured for 48 hours and 24 hours, respectively. Thereafter, each one of test substances was added to each well. As a control of a medical agent, DMSO was added. After the addition, both cells were continuously cultured for 72 hours. Then, an XTT labeling reagent containing 1 mg/mL of sodium 3′-[1-(phenylaminocarbonyl)-3,4-tetrazolium]-bis(4-methoxy-6-nitro)benzenesulfonate hydrate (XTT) and an electronic coupling reagent containing 1.25 mM N-methyl dibenzopyrazine methyl sulfate (PMS) were mixed at a ratio of 50:1 to give an XTT labeling mixture. The XTT labeling mixture was added to each well in an amount of 50 μL per well, and the cells were cultured for another 4 hours. A culture solution containing a test substance was used as a blank, and the absorbencies of a culture solution containing the XTT labeling mixture at a measurement wavelength (450 nm) and a control wavelength (650 nm) were measured by a plate reader. The difference between these absorbencies was evaluated as an activity of dehydrogenase of mitochondria derived from living cells. With respect to the following model formula of sigmoid curve, the convergent solution of each variable (gain, range, base and α) that minimize the residual sum of squares of the difference between these absorbencies and regressive prediction was determined, and then IC50 (=e^α) of each test substance was calculated.
The IC50 values of the compounds represented by the formula (1) or the salts thereof on two cancer cell lines according to the method of Test Example 2 were calculated, and the results are shown in Table A.

[2] = test system: human fibrosarcoma cell lines (HT1080 cells); assay: Calculation of IC50 value, cell proliferation inhibitory activity by XTT assay, HT1080 cells (Test Example 2)
Protocol: as §1, with “Then, an XTT labeling reagent containing 1 mg/mL of sodium 3′-[1-(phenylaminocarbonyl)-3,4-tetrazolium]-bis(4-methoxy-6-nitro)benzenesulfonate hydrate (XTT) and an electronic coupling reagent containing 1.25 mM N-methyl dibenzopyrazine methyl sulfate (PMS) were mixed at a ratio of 50:1 to give an XTT labeling mixture.” left out

[3] = test system: Human prostate cancer cell lines (PC-3 cells); assay: Measurement of cell death-inducing activity (Test Example 1); conditions: PC-3, 48 h, 48 hours after addition, tested at 10, 1, 0.1, 0.025 and 0.00625 μmol/L, qualitative evaluation of 10 fields, read-out: Concentration showing the cell death-inducing activity (cell death-inducing rate not less than 40%)
In short: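 PC-3 cells seeded at 1×10^5 cells/well and grown 48 h at 37 °C, 5% CO2, then exposed to compound at 10, 1, 0.1, 0.025 and 0.00625 μmol/L (DMSO control) for a further 48 h. Activity was called where cell death-inducing rate was not less than 40%.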

[4] = HT1080 cells, 72 hours culture with test substance, XTT assay, read-out: Cell proliferation inhibitory activity (IC50 value calculated from XTT assay), concentration showing 50% inhibitory activity, human fibrosarcoma cell lines (HT1080)

| SMILES | pIC50 [1] | pIC50 [2, 4] | minimal effective concentration [3] [µM] | pIC50 ([2]; read-out: Cell proliferation inhibitory activity (IC50 value calculated from XTT assay), concentration showing 50% inhibitory activity, human fibrosarcoma cell lines (HT1080), HT1080 cells, 72 hours culture with test substance, XTT assay) | pIC50 ([2]; 72 h) |
| --- | --- | --- | --- | --- | --- |
| COc1cc(C)ccc1-c1cc(COC(=O)Nc2ccc3c(c2)nc2n3CCOC2)n(C)n1 [Example 13-101] | 8.79 | 8.38 | 0.00625 | – | – |
| CCn1nnc2cc(COC(=O)Nc3sc(-c4ccc(C)cc4OC)nc3C)ccc21 [Example 9-25] | 9.09 | – | – | 8.79 | – |
| COc1cc(C)ccc1-c1nc(C)c(NC(=O)OCc2ccc3c(c2)nc2n3CCOC2)s1 [Example 9-94] | 9.25 | – | 0.00625 | – | 8.76 |
| COc1cc(Cl)ccc1-c1nc(C)c(NC(=O)OCc2ccc3c(c2)nc2n3CCCC2)s1 [Example 9-1, [2-(4-Chloro-2-methoxyphenyl)-4-methylthiazol-5-yl]carbamic acid 1,2,3,4-tetrahydrobenzo[4,5]imidazo[1,2-a]pyridin-7-ylmethyl ester] | 8.17 | 7.82 | 0.025 | – | – |
